Here are results for seven compounds from US10975119B2, “Selective cysteine protease inhibitors and uses thereof” (Genesis Technologies Limited, priority 2011, dated 2021).

Counter-ions that a name gives are not always drawn. Like-named read-outs stand apart in the source and are kept apart here. A value given as a limit tells only on which side of the number the result lay.

Holding throughout (type): biochemical
For assay [1], the target named is T1, Caspase-5 (Homo sapiens, UniProt P51878).
T1 construct: mixing the compounds with the respective active caspases; purchased BioVision K155-100
T1 sequence (P51878 137-327 limits assumed): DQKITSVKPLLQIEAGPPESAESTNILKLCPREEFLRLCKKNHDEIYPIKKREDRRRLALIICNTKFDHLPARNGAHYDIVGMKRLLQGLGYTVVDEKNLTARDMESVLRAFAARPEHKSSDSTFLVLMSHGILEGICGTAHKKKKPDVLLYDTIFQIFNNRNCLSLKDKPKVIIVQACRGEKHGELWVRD
T1 sequence (P51878 347-434 limits assumed): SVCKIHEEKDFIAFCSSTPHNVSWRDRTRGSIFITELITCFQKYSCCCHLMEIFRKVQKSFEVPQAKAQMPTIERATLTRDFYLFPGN
Put plainly: Caspase-5 inhibitor screening assay (BioVision kit, WEHD-AFC). To be noted: for inhibition at 10 µM: read-out: % Inhibition at 10 uM Casp5; for inhibition at 100 µM: read-out: % Inhibition at 100 uM Casp5. Put shortly:
(§1)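 Fluorometric read-out of free AFC released from the caspase-specific synthetic substrate. IC50 from concentration series, sometimes narrower.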

The target in assay [2] is T2, Caspase-4 (Homo sapiens, UniProt P49662).
T2 construct: mixing the compounds with the respective active caspases; purchased BioVision K154-100
T2 sequence (P49662 81-270 limits assumed): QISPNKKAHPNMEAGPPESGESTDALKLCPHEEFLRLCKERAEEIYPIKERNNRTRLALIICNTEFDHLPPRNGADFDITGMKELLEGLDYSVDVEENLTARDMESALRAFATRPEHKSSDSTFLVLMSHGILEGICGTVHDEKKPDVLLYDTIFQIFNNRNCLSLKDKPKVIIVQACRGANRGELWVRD
T2 sequence (P49662 290-377 limits assumed): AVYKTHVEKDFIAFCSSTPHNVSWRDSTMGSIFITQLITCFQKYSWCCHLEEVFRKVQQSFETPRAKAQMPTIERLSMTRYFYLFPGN
Put plainly: Caspase-4 inhibitor screening assay (BioVision kit, LEVD-AFC). Conditions: for inhibition at 10 µM: read-out: % Inhibition at 10 uM Casp4; for inhibition at 100 µM: read-out: % Inhibition at 100 uM Casp4. Put shortly:
as §1

Assay [3] has as its target T3, Caspase-6 (Homo sapiens, UniProt P55212).
T3 construct: mixing the compounds with the respective active caspases; purchased BioVision K156-100
T3 sequence (P55212 24-179 limits assumed): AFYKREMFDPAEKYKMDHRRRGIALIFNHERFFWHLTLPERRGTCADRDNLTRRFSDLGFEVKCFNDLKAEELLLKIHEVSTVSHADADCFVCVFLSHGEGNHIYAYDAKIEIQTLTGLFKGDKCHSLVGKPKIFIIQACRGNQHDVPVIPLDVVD
T3 sequence (P55212 194-293 limits assumed): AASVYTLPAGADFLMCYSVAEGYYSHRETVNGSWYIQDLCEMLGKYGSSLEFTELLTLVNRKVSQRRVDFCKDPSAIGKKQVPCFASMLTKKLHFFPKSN
The assay is described as follows: Caspase-6 inhibitor screening assay (BioVision kit, VEID-AFC). Conditions: for inhibition at 10 µM: read-out: % Inhibition at 10 uM Casp6; for inhibition at 100 µM: read-out: % Inhibition at 100 uM Casp6. The method, boiled down:
as §1

Assay [4] addresses T4, Caspase-3 (Homo sapiens, UniProt P42574).
T4 construct: mixing the compounds with the respective active caspases; purchased BioVision K153-100
T4 sequence (P42574 29-175 limits assumed): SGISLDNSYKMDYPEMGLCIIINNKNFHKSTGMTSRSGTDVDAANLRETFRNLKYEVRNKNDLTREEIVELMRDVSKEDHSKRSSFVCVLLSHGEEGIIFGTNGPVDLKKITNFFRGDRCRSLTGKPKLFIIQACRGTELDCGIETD
T4 sequence (P42574 176-277 limits assumed): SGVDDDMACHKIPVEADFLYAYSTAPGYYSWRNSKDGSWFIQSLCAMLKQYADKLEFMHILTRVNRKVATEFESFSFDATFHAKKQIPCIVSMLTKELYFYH
The assay is described as follows: Caspase-3 inhibitor screening assay (BioVision kit, DEVD-AFC). Conditions: for inhibition at 10 µM: read-out: % Inhibition at 10 uM Casp3; for inhibition at 100 µM: read-out: % Inhibition at 100 uM Casp3; for IC50: read-out: IC50 Casp3. Put shortly:
as §1

Assay [5] has as its target T5, Caspase-8 (Homo sapiens, UniProt Q14790).
T5 construct: mixing the compounds with the respective active caspases; purchased BioVision K158-100
The assay is described as follows: Caspase-8 inhibitor screening assay (BioVision kit, IETD-AFC). Conditions: for inhibition at 10 µM: read-out: % Inhibition at 10 uM Casp8; for inhibition at 100 µM: read-out: % Inhibition at 100 uM Casp8; for IC50: read-out: IC50 Casp8. The method, boiled down:
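Each caspase cleaved its own AFC-labelled peptide substrate, and released AFC was read by fluorescence. % inhibition came from RFU against an uninhibited control.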

The target of assay [6] is T6, Caspase-10 (Homo sapiens, UniProt Q92851).
T6 construct: mixing the compounds with the respective active caspases; purchased BioVision K160-100
T6 sequence (Q92851 220-415 limits assumed): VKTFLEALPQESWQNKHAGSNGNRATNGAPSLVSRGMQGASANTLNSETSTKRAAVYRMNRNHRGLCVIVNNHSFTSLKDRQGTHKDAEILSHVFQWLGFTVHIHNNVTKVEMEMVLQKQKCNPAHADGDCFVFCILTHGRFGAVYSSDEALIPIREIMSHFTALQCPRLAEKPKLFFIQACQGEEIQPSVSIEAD
T6 sequence (Q92851 416-521 limits assumed): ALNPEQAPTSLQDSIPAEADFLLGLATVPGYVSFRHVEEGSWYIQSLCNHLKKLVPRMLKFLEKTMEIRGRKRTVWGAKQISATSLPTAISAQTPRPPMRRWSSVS
The assay is described as follows: Caspase-10 inhibitor screening assay (BioVision kit, AEVD-AFC). Conditions: for inhibition at 10 µM: read-out: % Inhibition at 10 uM Casp10; for inhibition at 100 µM: read-out: % Inhibition at 100 uM Casp10; for IC50: read-out: IC50 Casp10. The method, boiled down: as §1

T5 sequence (Q14790 217-374 limits assumed): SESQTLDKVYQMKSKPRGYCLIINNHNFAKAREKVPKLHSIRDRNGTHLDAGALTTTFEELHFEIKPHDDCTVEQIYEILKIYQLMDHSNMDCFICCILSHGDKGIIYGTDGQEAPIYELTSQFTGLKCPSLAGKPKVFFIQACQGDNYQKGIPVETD
T5 sequence (Q14790 385-479 limits assumed): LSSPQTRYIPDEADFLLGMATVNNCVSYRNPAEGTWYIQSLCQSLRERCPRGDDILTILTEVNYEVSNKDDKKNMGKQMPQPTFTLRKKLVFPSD

Turning to `CC(C)(C)[C@@H](NC(=O)[C@H](CC(=O)O)NC(=O)OCc1ccccc1)C(=O)N1CC[C@@H]1C(=O)N[C@H](/C=C/S(C)(=O)=O)CC(=O)O` [Compound 32, Z-Asp-t-Leu-(Azetidine-2-carbonyl)-Asp-methyl vinyl sulfone], the inhibition at 10 µM in assay [1] is 23%; in assay [2], 76%; in assay [3], 0%; in assay [4], 96%; in assay [5], 69%; in assay [6], 97%. The inhibition at 100 µM in assay [1] amounted to 77%; in assay [2], 100%; in assay [3] it was 1%; in assay [4], 100%; in assay [5], 98%; in assay [6] it was 100%. Moreover, the 50% inhibitory concentration (IC50) in assay [1] (read-out: IC50 Casp5) is 35.2 µM; in assay [2] (read-out: IC50 Casp4), 5.63 µM; in assay [3] (read-out: IC50 Casp6), greater than 100 µM; in assay [4], 0.28 µM; in assay [5] it was 4.08 µM; in assay [6], 0.42 µM. In assay [4] (replacement of Pro at P2 of compound 26), the “potency against caspase-3 relative to compound 26, in words” value is “did not affect the potency against caspase-3”.

On to `CC(C)(C)[C@H](NC(=O)c1ccc2ccccc2n1)C(=O)N1CC[C@@H]1C(=O)N[C@H](/C=C/S(C)(=O)=O)CC(=O)O` [Compound 20, 2-Quinoline carbonyl-t-Leu-(Azetidine-2-carbonyl)-Asp methyl vinyl sulfone], for which the inhibition at 10 µM in assay [1] is 55%; in assay [2], 85%; in assay [3], 0%; in assay [4] it was 1%; in assay [5] it was 8%; in assay [6], 42%. In addition, the inhibition at 100 µM in assay [1] worked out at 96%; in assay [2], 100%; in assay [3], 0%; in assay [4] it was 5%; in assay [5], 23%; in assay [6], 93%. Further, the IC50 in assay [1] (read-out: IC50 Casp5) was 8.39 µM; in assay [2] (read-out: IC50 Casp4), 1.56 µM; in assay [3] (read-out: IC50 Casp6), greater than 100 µM; in assay [4], greater than 100 µM; in assay [5], greater than 100 µM; in assay [6], 12.5 µM.

For `CCOC(=O)/C=C/[C@H](CC(=O)O)NC(=O)[C@@H](NC(=O)[C@H](CCC(=O)O)NC(=O)[C@@H](NC(=O)OCc1ccccc1)C(C)C)C(C)CC` (stereo partly drawn) [Compound 124, Z-Val-Glu-Ile-Asp-Ethyl Vinyl ester], the concentration for half-maximal inhibition (IC50) in assay [1] (read-out: IC50 Casp5) is 3.77 µM; in assay [2] (read-out: IC50 Casp4), 1.27 µM; in assay [3] (read-out: IC50 Casp6) it was 0.29 µM; in assay [3] (read-out: inhibition (IC50) against Caspase-6) it was 0.293 µM; in assay [4], 0.58 µM; in assay [5], 0.19 µM. Besides, the IC50 in assay [6] amounted to 0.03 µM.

With `CC(C)[C@H](NC(=O)[C@@H](NC(=O)[C@H](CC(=O)O)NC(=O)OCc1ccccc1)c1ccccc1)C(=O)N[C@H](/C=C/S(C)(=O)=O)CCC(=O)O` [Compound 84, Z-Asp-Phg-Val-Glu methyl vinyl sulfone], the inhibition at 10 µM in assay [1] stood at 0%; in assay [2] it was 0%; in assay [3], 0%; in assay [4] it was 39%; in assay [5], 9%; in assay [6] it was 2%. Further, the inhibition at 100 µM in assay [1] stood at 0%; in assay [2], 0%; in assay [3], 5%; in assay [4], 88%; in assay [5], 10%; in assay [6] it was 0%. Besides, the IC50 is greater than 100 µM in assay [1] (read-out: IC50 Casp5); greater than 100 µM in assay [2] (read-out: IC50 Casp4); greater than 100 µM in assay [3] (read-out: IC50 Casp6); 15.2 µM in assay [4]; greater than 100 µM in assay [5]; greater than 100 µM in assay [6].

For `CC(C)(C)[C@H](NC(=O)c1ccc2ccccc2n1)C(=O)N1CCC[C@@H]1C(=O)N[C@H](/C=C/S(C)(=O)=O)CC(=O)O` [Compound 6, 2-Quinoline carbonyl-t-Leu-pro-Asp methyl vinyl sulfone], the inhibition at 10 µM in assay [1] stood at 86%; in assay [2], 99%; in assay [3] it was 0%; in assay [4] it was 1%; in assay [5], 0%; in assay [6], 3%. Further, the inhibition at 100 µM in assay [1] came to 99%; in assay [2] it was 100%; in assay [3] it was 3%; in assay [4] it was 1%; in assay [5] it was 22%; in assay [6], 74%. Besides, the IC50 in assay [1] (read-out: potency (IC50) against caspase-5) was 2.32 µM; in assay [2] (read-out: IC50 Casp4) it was 1.55 µM; in assay [2] (read-out: potency (IC50) against caspase-4) it was 1.55 µM; in assay [3] (read-out: IC50 Casp6), greater than 100 µM; in assay [4], greater than 100 µM; in assay [5] it was greater than 100 µM. For the same compound, the half-maximal inhibitory concentration (IC50) in assay [6] came out at 56 µM.

For the compound `CCOC(=O)/C=C/[C@@H](N)CC(=O)O` [Compound 44, Asp ethyl vinyl ester tosyl salt], the inhibition at 10 µM in assay [1] came out at 0%; in assay [2] it was 0%; in assay [3], 0%; in assay [4], 0%; in assay [5], 0%; in assay [6] it was 4%. Further, the inhibition at 100 µM in assay [1] was 0%; in assay [2] it was 0%; in assay [3], 0%; in assay [4], 0%; in assay [5] it was 7%; in assay [6], 15%. The IC50 in assay [1] (read-out: IC50 Casp5), in assay [2] (read-out: IC50 Casp4), in assay [3] (read-out: IC50 Casp6), in assay [4], in assay [5] and in assay [6] was greater than 100 µM each time.

As to `CS(=O)(=O)/C=C/[C@H](CC(=O)O)NC(=O)[C@@H](N)CCC(=O)O` [Compound 22, Glu-Asp methylsulfone], the inhibition at 10 µM in assay [1] was determined as 11%; in assay [2], 0%; in assay [3], 1%; in assay [4], 0%; in assay [5] it was 3%; in assay [6], 15%. Further, the inhibition at 100 µM came out at 0% in assay [1]; 0% in assay [2]; 0% in assay [3]; 0% in assay [4]; 7% in assay [5]; 14% in assay [6]. Also, the half-maximal inhibitory concentration (IC50) in assay [1] (read-out: IC50 Casp5), in assay [2] (read-out: IC50 Casp4), in assay [3] (read-out: IC50 Casp6), in assay [4], in assay [5] and in assay [6] was greater than 100 µM in each case.
